One test relates to DSS-induced colitis. In words: DSS-induced colitis mouse model. Type of test: in vivo, C57BL/6 mice. As to conditions: 10 mg/kg intragastric, DSS 2.5% 8 days; for effect on colon length: day 9. The method, then:
• (1) Animals: 40 C57BL/6 mice, male, aged 8 weeks, 22-24 g • (2) Materials: […] Biomedicals, USA, Cat. No. […] Tween 80; Wahaha purified water • (3) Procedures: […] The solution was inspected daily and replaced with fresh DSS solution when necessary. On day one after modeling, the treatment was given. […] On day 9, the mice were sacrificed, and the blood and colon were collected. The colon length, occult blood in the cecal contents, and other conditions were also recorded. Test compound formulation: 1.00 mg of compound powder was dissolved in 20 μL of DMSO completely. Then, 20 μL of Tween 80 was added, and the mixture was well mixed. 0.96 mL of Wahaha purified water was added, and the mixture was well mixed to give a 1 mg/mL solution, which was administered at a dose of 0.1 mL/10 g (body weight). Solvent: 20 μL of DMSO, 20 μL of Tween 80, and 0.96 mL of Wahaha purified water were mixed well (used in the modeling group).

The next test has as its system atopic dermatitis. In words: DNFB-induced atopic dermatitis mouse model (AD Score). The format is in vivo, BALB/C mice. On the set-up: scale not given here. As to conditions: DNFB mice. On the procedure:
56 clean-grade BALB/C mice aged 6-8 weeks were subjected to 5 days of adaptive feeding and then randomized into 7 groups of 8 mice each: • A. Blank control group • B. Modeling+solvent group • C. Modeling+blank matrix group • D. Modeling+positive drug mometasone furoate group • E. Modeling+1 wt % of benvitimod group • F. […] The animal experiments were conducted in accordance with the Experimental Animal Feeding, Management and Use Guidelines of China Pharmaceutical University and in compliance with animal study ethics and regulations. As shown in the above procedures, the solvent control or DNFB was given in the morning for modeling; from day 5, the test compound ointment was administered once every afternoon at 50 mg/dose evenly on the skin surface. The specific administration method is as shown above; Specific procedures: […] Severity of atopic dermatitis was scored using the AD Score criteria The severity of the appearance of dermatitis was evaluated based on 4 indicators: A. erythema/bleeding; B. dryness; C. effusion/crusting; D. edema.

In a further test the test system is IMQ-induced psoriasis. Kind of test: IMQ-induced psoriasis in mice (PASI score). Type of test: in vivo, KM mice. The following applies: for PASI score (folds, scales, erythema): IMQ mice, 1.2 wt % in blank matrix, 62.5 mg topical. On the procedure: • 1) The efficacy on IMQ-induced psoriasis in mice by compound 6 # was evaluated.
[drawing 91] • 2) Grouping • (1) Petrolatum+blank matrix group, 10 mice; • (2) IMQ+blank matrix group, 10 mice; • (3) IMQ+compound 6 #group (1.2 wt % in blank matrix), 10 mice. • IMQ: imiquimod • 3) Formulation • IMQ: 5% imiquimod (imiquimod was used for inducing psoriasis on the skin of modeling mice) 1.2% compound 6 #formulation was prepared in blank matrix • 4) Animals • Species and strain: SPF-grade KM mice, male • Weight: 35-40 g • Source: SPF (Beijing) Biotechnology Co., Ltd. • Housing conditions: air-conditioned room, with a temperature of 18-26° C. and a relative humidity of 20%-60%. • 5) Procedures
Skin pretreatment: Mice were given free access to water and food. After 5 days of adaptation in the animal room, the hair on the back of the mice within an area of 2 cm×2.5 cm was shaved. The area was treated with a depilatory cream for 30 s-1 min, and then the cream was removed with cotton pads. Randomization: 24 h after depilation, […] by weight: petrolatum+blank matrix group (10 mice); IMQ+blank matrix group (10 mice); IMQ+compound 6 #group (1.2% compound in blank matrix) (10 mice).
Modeling and treatment: 62.5 mg of 5% imiquimod or petrolatum in the morning was administered to the mice in the morning. In the afternoon, 62.5 mg of blank matrix or 1.2% compound 6 # was smeared on the back.
Recording: Before modeling in the morning, the condition of the skin folds, erythema, and scales was observed, scored, and photographed daily, and the mouse PASI score was calculated.

Where [1] appears, read: day 0, before ointment treatment (from day 5).
The mark [2] stands for this setting: day 4, before ointment treatment (from day 5).
The mark [3] stands for this setting: day 6, ointment 50 mg once daily from day 5 (1.2 wt % 2#/6#, 1 wt % benvitimod).
[4] abbreviates: day 8, ointment 50 mg once daily from day 5 (1.2 wt % 2#/6#, 1 wt % benvitimod).
Setting [5] is: day 10, ointment 50 mg once daily from day 5 (1.2 wt % 2#/6#, 1 wt % benvitimod).

The structures appear in SMILES notation. Marks after values point to notes of the source that are not given here.

For `CC(C)c1c(O)cc(/C=C/c2ccccc2)cc1O` [Reference 1#, Benvitimod, reference compound], the “disease activity indicator (body weight change and hematochezia)” value in the test with DSS-induced colitis is recorded as “good therapeutic effects”. In the test with DSS-induced colitis, the “effect on colon length” value is recorded as “the conditions were improved”. The “Back AD score” value with atopic dermatitis (setting [1]) came out at 0.00 ± 0.00; in the test with atopic dermatitis (setting [2]), 3.63 ± 0.78; with atopic dermatitis (setting [3]), 7.44 ± 1.07; in the test with atopic dermatitis (setting [4]) it was 7.19 ± 1.14; in the test with atopic dermatitis (setting [5]), 6.81 ± 1.00.

With `Oc1cc(/C=C/c2ccc(F)cc2)cc(O)c1C1CCCCC1` [Compound 6, (E)-2-cyclohexyl-5-(4-fluorostyryl)-1,3-benzenediol], the “disease activity indicator (body weight change and hematochezia)” value with DSS-induced colitis is on record as “a more significant effect”. The “effect on colon length” value with DSS-induced colitis is on record as “superior to that in the reference 1 #benvitimod group”. The “Back AD score” value in the test on atopic dermatitis (setting [1]) is given as 0.00 ± 0.00; in the test on atopic dermatitis (setting [2]) it was 3.50 ± 0.35; in the test on atopic dermatitis (setting [3]) it was 5.56 ± 1.45; in the test on atopic dermatitis (setting [4]) it was 6.69 ± 1.64**^a; in the test with atopic dermatitis (setting [5]), 5.44 ± 1.13**^aab. The “PASI score (folds, scales, erythema)” value in the test on IMQ-induced psoriasis (Day 1) was 3.90; in the test with IMQ-induced psoriasis (Day 2), 4.30; in the test with IMQ-induced psoriasis (Day 3), 6.10; in the test on IMQ-induced psoriasis (Day 4), 6.30; with IMQ-induced psoriasis (Day 5), 6.50; in the test with IMQ-induced psoriasis (Day 6), 5.80. Moreover, the “PASI score (folds, scales, erythema)” value in the test with IMQ-induced psoriasis (Day 7) is on record as 5.60. Besides, in the test with IMQ-induced psoriasis (day 7, 1.2 wt % in blank matrix), the “therapeutic effect versus IMQ+blank matrix group” value is given as “significantly superior therapeutic effect”.

The values are drawn from US20250382250A1, “STILBENE DERIVATIVE AS AHR AGONIST AND USE THEREOF” (NANJING GRITPHARMACO., LTD., priority 2022, published 2025).
